Measurements taken from patent US5670498A, “8-substituted styryl xanthine derivatives” (Kyowa Hakko Kogyo Co., Ltd., priority 1992, dated 1997).

What was measured:
adenosine A2 receptor = target: T1, adenosine A2 receptor (Rattus norvegicus, UniProt P30543); test: Adenosine A2 Receptor Binding Test (3H-CGS 21680, rat corpus striatum)
T1 construct: Corpus striatum of a rat was suspended in ice-cooled 50 mM Tris; from tissue; host or cells: rat corpus striatum (washed membrane suspension)
Method: Adenosine Receptor Antagonistic Activity (Adenosine A2 Receptor Binding Test)
Corpus striatum of a rat was suspended in ice-cooled 50 mM Tris hydroxymethyl aminomethane hydrochloride (Tris HCl) buffer (pH 7.7) by using Polytron homogenizer (manufactured by Kinematicas Co.). The suspension was centrifuged (50,000×g, 10 minutes), and the precipitate was suspended again in the same amount of 50 mM Tris HCl buffer. The suspension was centrifuged under the same conditions, and the final precipitate was suspended once again in 50 mM Tris HCl buffer containing 10 mM magnesium chloride and 0.02 unit/mg tissue of adenosine deaminase (manufactured by Sigma Co.) to give a tissue concentration of 5 mg (wet weight)/ml.
To 1 ml of the tissue suspension thus prepared were added 50 μl of a mixture of N-ethylcarboxamidoadenosine labeled with tritium (^3 H-NECA: 26 Ci/mmol, manufactured by Amersham Co.) (final concentration: 3.8 nM) and cyclopentyladenosine (CPA, manufactured by Sigma Co.) (final concentration: 50 nM), and 50 μl of a test compound. The resulting mixture was allowed to stand at 25° C. for 120 minutes and then rapidly filtered by suction through a glass fiber filter (GF/C, manufactured by Whatman Co.). The filter was immediately washed three times with 5 ml each of ice-cooled 50 mM Tris HCl buffer, and transferred to a vial, and a scintillator (EX-H by Wako Pure Chemical Industries, Ltd.) was added thereto. The radioactivity on the filter was determined with a liquid scintillation counter (manufactured by Packard instrument Co.).
The similar procedure as above was repeated to determine the radioactivity bound to the A2 receptors using 50 μl of CGS 21680 labeled with tritium {^3 H-2-[p-(2-carboxyethyl)phenethylamino]-5'-(N-ethylcarboxamide)adenosine: 40 Ci/mmol, manufactured by New England Nuclear Co. [J. Pharmacol. Exp. Ther., 251, 888 (1989)]} (final concentration: 4.0 nM) in place of 50 μl of the mixture of N-ethylcarboxamidoadenosine labeled with tritium (^3 H-NECA: 26 Ci/mmol, manufactured by Amersham Co.) (final concentration: 3.8 nM) and cyclopentyladenosine (CPA, manufactured by Sigma Co.) (final concentration: 50 nM).
The inhibition rate of the test compound against the binding of A2 receptors (^3 H-CGS 21680 binding) was calculated by the following equation: [formula]
The Ki values shown in the table were calculated by the following equation: [formula]

[1] = test system: Haloperidol-Induced Catalepsy; test: Effect on Haloperidol-Induced Catalepsy; assay type: in vivo, male ddY mice; conditions: 10 mg/kg po
Method: Effect on Haloperidol-Induced Catalepsy Parkinson's disease is a clinical syndrome caused by degeneration of nigrostriatal dopaminergic neurons. […] The experiment was performed by using several groups of 5-weeks-old male ddY mice (weighing 22 to 24 g, Japan SLC), each group consisting of 5 mice. Haloperidol (Janssen Pharmaceutica) suspended in 0.3% CMC was intraperitoneally administered to each mouse at a dose of 1.0 mg/kg. Test compounds were suspended in injectable distilled water (Otsuka Pharmaceutical Co., Ltd.) containing Tween 80 [polyoxyethylene (20) sorbitan monooleate]. L-DOPA (Kyowa Hakko Kogyo Co., Ltd.) and benserazide hydrochloride (Kyowa Hakko Kogyo Co., Ltd.) were suspended in 0.3% CMC. One hour after the haloperidol administration, the test compound suspensions and the control suspension [injectable distilled water (Otsuka Pharmaceutical Co., Ltd.) containing Tween 80] containing no test compound were orally administered to separate groups of the mice (0.1 ml per 10 g of body weight). One hour after the administration of the test compound, the forelimbs of each mouse and subsequently the hindlimbs of the same mouse were placed on a 4.5 cm-high, 1.0 cm-wide bar and catalepsy was estimated. […] The catalepsy score and the standard of judgment are shown below. […] The effect of the compounds was evaluated by the total of the catalepsy scores of five mice in each group (25 points at the full).

[2] = test system: Clonidine-Induced Aggressive Behavior; test: Effect on Clonidine-Induced Aggressive Behavior; assay type: in vivo, male ddY mice; conditions: 10 mg/kg po, clonidine 20 mg/kg ip
Method: Effect on Clonidine-Induced Aggressive Behavior The effect of a test compound on the aggressive behavior induced by intraperitoneal administration of clonidine was investigated [Eur. J. Pharmacol., 29, 374 (1968)]. The experiment was performed by using several groups of male ddY mice (weighing 20 to 25 g, Japan SLC), each group consisting of two mice. The test compound was suspended in injectable distilled water (Otsuka Pharmaceutical Co., Ltd.) containing Tween 80. Clonidine hydrochloride (Sigma Co.) was dissolved in physiological saline solution (Otsuka Pharmaceutical Co., Ltd.). The test compound suspension and the control suspension [injectable distilled water (Otsuka Pharmaceutical Co., Ltd.) containing Tween 80] were orally administered to separate groups of the mice (0.1 ml per 10 g of body weight). Sixty minutes after the oral administration of the test compound, clonidine hydrochloride (20 mg/kg) was intraperitoneally injected. The number of biting attacks during 30 minutes after clonidine treatment was counted. The effect of the compound was evaluated by comparing the average number of biting attacks of the test compound-administered groups with that of control groups (Student's t-test).

[3] = read-out: A2 Receptor Inhibition Rate

T1 sequence (P30543 whole entry): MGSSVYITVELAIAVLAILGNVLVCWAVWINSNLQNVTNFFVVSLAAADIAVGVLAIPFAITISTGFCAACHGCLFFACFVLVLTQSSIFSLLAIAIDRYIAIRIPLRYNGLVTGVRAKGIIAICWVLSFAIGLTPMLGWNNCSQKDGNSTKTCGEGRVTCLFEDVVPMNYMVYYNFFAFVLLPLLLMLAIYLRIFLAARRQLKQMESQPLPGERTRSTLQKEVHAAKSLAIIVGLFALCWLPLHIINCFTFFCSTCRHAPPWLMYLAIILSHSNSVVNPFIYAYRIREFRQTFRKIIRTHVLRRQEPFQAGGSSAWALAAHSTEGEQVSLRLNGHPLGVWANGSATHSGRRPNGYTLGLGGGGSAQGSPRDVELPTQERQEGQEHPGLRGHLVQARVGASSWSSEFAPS

Work on `CCn1c(=O)c2c(nc(/C=C/c3cccc(C(C)=O)c3)n2C)n(CC)c1=O` [Compound 24, (E)-8-(3-Acetylstyryl)-1,3-diethyl-7-methylxanthine] yielded a Ki (adenosine A2 receptor; [3H]CGS 21680 (inhibition rates of the same line marked *)) of 13 nM, an inhibition at 0.1 µM (adenosine A2 receptor; [3]) of 85% and an inhibition at 1 µM (adenosine A2 receptor; [3]) of 99%. The “Total Score (catalepsy)” value ([1]; sum of five mice, 25 points at the full, control 25) was 7, the inhibition in vivo at 10 mg/kg ([1]; Mus musculus, decrease in total score based on control group, read-out: Remission Rate) was 72% and the “Number of the Attacks of Test Compound-Treated Group/Number of the Attacks of Control Group” value [2] was 5.3. The “Number of the Biting Attacks (mean ± S.E.M.), Test Compound-Treated Group” value ([2]; 30 minutes, control 6.3 ± 2.09, p < 0.05) was 33.1 ± 7.16.
